From patent publication US8962612B2, “Tetrahydroisoquinoline derivative” (Astellas Pharma Inc, priority 2011, dated 2015)

Key:
human 5-HT5A receptor = human 5-HT5A receptor (Homo sapiens (Human), UniProt P47898); assay: Human 5-HT5A receptor binding inhibition test ([3H]5-CT); conditions: [3H]5-CT binding, membranes of HEK293 cells expressing human 5-HT5A receptor; Ki calculated from IC50, Kd 4.95 nM
Method: An open reading frame (ORF; protein coding region) of human 5-HT5A receptor (Genbank AF498985) was cloned from a human hippocampus cDNA library and then inserted into a pCR2.1 vector (Invitrogen), and E. coli carrying the plasmid was cultured in a large scale. Thereafter, a full-length cDNA sequence of the human 5-HT5A receptor was analyzed and recombined into pcDNA3.1 vector (Invitrogen) as an expression vector, followed by a large scale culturing. The HEK293 cells (ATCC) as a human embryonic kidney-derived cell line were seeded, and the expression plasmid (1 μg) obtained as above was added thereto together with LIPOFECTAMINE 2000 (Invitrogen; 2 μl) to introduce genes into the HEK293 cells. Subsequently, expression cells were screened using Geneticin (G418 sulfate 500 μg/ml; KANTO KAGAKU) as a drug resistance marker. The recombinant cells expressing the genes prepared in this manner were cultured for 3 days in Dulbecco's Modified Eagle Medium (D-MEM, Sigma) supplemented with 10% fetal calf serum (FCS), 1% penicillin/streptomycin (Pc./Sm, Invitrogen), and 500 μg/ml G418. The above experimental procedure was performed according to a genetic engineering experiment manual of a known method (Sambrook, J. et al, “Molecular Cloning-A Laboratory manual”, Cold Spring Harbor Laboratory, NY, 1989) or the like, or the instruction attached to the reagents.
The HEK293 cells forced to express the human 5-HT5A receptor were cultured in a F500 plate and collected by being scarped with a scraper. After centrifugation, the sediment was collected, and an incubation buffer (50 mM Tris(HCl), pH 7.4, 10 mM MgSO4, 0.5 mM ethylenediaminetetraacetic acid (EDTA)) was added thereto. After homogenization, centrifugation was performed again, and the sediment was thoroughly suspended in the incubation buffer added thereto. After this procedure was repeated, the protein concentration was measured, thereby completing membrane preparation.
A test compound and 150 μM of a DMSO solution of 5-carboxamide tryptamine (5-CT) were added to a 96-well plate at 2 μl/well and suspended in the incubation buffer, and the HEK293 cells forced to express the human 5-HT5A receptor that were prepared at a concentration of 200 μg/ml were added thereto at 100 μl/well. The cells were incubated for 15 minutes at room temperature, and then a [^3H]5-CT solution (3 nM [^3H]5-CT, incubation buffer) was added thereto at 100 μl/well.
100 μl of the cell solution was separately dispensed into a liquid scintillation vial, and 2 ml of Aquasol II (registered trademark) was added thereto, followed by stirring. Thereafter, the radioactivity thereof was measured using a liquid scintillation counter. The cells were incubated for 60 minutes at 37° C. The reaction mixture was aspirated into a 96-well GF/C filter plate having undergone pretreatment with 0.2% polyethyleneimine, and washed 6 times with an ice-cold 50 mM Tris (pH 7.4) buffer. Thereafter, the GF/C filter plate was dried.
MicroScint™-PS (registered trademark) was added to the plate at 40 μl/well, and the radioactivity remaining on the GF/C filter plate was measured using TopCount.
In each test example, regarding the [^3H]5-CT binding inhibitory activity resulting from the test compound, the radioactivity at the time when only DMSO was added was regarded as 0%, and the radioactivity at the time when 1.5 μM 5-CT was added was regarded as 100% inhibition, thereby calculating an IC50 value. In addition, from a Kd value of [^3H]5-CT obtained from Scatchard analysis, a Ki value was calculated by the following formula. Ki=IC50/(1+concentration of ligand added/Kd(4.95 nM))

male ICR mouse [1] = assay: MK-801-induced increase in level of physical activity (hyperactivity) of mouse; type: in vivo; conditions: MK-801 0.3 mg/kg, significance P<0.05 vs vehicle
Method: (§1) The improvement effect of the compound of formula (I) on schizophrenia was evaluated by the measurement of the level of physical activity reduced by the administration of the compound, in a model having symptoms induced by methamphetamine (hereinafter, abbreviated to MAP) and MK-801.
(§2) The animals were taken out of a breeding cage, and the test compound was orally administered to the animal. Thereafter, the animals were put in the breeding cage. 30 minutes later, the animals were put in a cage for measurement, and the level of physical activity of the animals administered only with the test compound was measured. Another 30 to 90 minutes later, the animals were taken out, and drugs (MAP; 1.5 mg/kg or MK-801; 0.3 mg/kg dissolved in physiological saline) increasing the level of physical activity were respectively administered to the animals subcutaneously or intraperitoneally. The level of physical activity for a certain period of time (60 minutes) was measured using an instrument measuring a level of physical activity (CompACT AMS, MUROMACHI KIKAI CO., LTD.) by an infrared sensor.
For the normal mouse (mouse administered with physiological saline) and the mouse administered with the medication increasing the level of physical activity, Student's T test was performed in the respective intervals to judge the effect. For the group administered with the test compound, Dunnett's T test was performed for the comparison with a vehicle group, whereby the effect of the compound was tested. When there was a significant difference (P<0.05), the compound was judged to be effective.

male ICR mouse [2] = assay: Methamphetamine (MAP)-induced increase in level of physical activity (hyperactivity) of mouse; type: in vivo; conditions: oral dose 0.03 mg/kg; MAP 1.5 mg/kg; significance P<0.05 vs vehicle
Method: as §1, §2
For the normal mouse (mouse administered with physiological saline) and the mouse administered with the medication increasing the level of physical activity, Student's T test was performed in the respective intervals to judge the effect. […]

male ddy mouse = assay: Scopolamine-induced spontaneous alternation behavior in mouse (Y-maze); type: in vivo; conditions: scopolamine 0.5 mg/kg i.p., alternation rate, p<0.05 vs control
Method: The improvement effect of the compound of formula (I) on dementia and the cognitive disease of schizophrenia was evaluated by the known test method described above by using a short-term learning disability model.
10 to 30 minutes after the test compound was orally administered, scopolamine at 0.5 mg/kg or MK-801 (physiological saline for a normal group) at 0.15 mg/kg was intraperitoneally administered, and the test was performed 20 minutes after the administration. In addition, for a normal group (group administered with physiological saline) and a control group (group administered with scopolamine at 0.5 mg/kg or MK-801 at 0.15 mg/kg), a vehicle was orally administered when the test compound was administered.
The mouse was put into one end of an arm of a maze (Y-maze) having arms of the same length that extended in three directions. The mouse was allowed to freely explore for 8 minutes, and the number of entries into the arm for the 8 minutes was counted. Moreover, a case where the mouse consecutively entered three different arms was regarded as spontaneous alternation behavior, and a ratio of the number of times of such a behavior to the total entry number was regarded as alternation rate and calculated by the following formula. Alternation rate(%)=number of times of spontaneous alternation behavior/(total entry number−2)×100
When a significant difference (Student's T test) was observed between the normal group and the control group in the alternation rate (%), the learning disability was considered to be induced by the administration of scopolamine or MK-801. By performing Dunnette's test for comparing the test compound-administered groups with the control group, whether or not the test compound has an action […] was determined. In each test, p<0.10 was regarded as a trend, and p<0.05 was regarded as a significant difference.

BALB/3T3 = assay: Test for evaluating phototoxic effect (neutral red incorporation, UV irradiation); type: cell-based; conditions: BALB/3T3, UV 70 minutes 1200 μW/cm2 vs non-irradiated
Method: 1) BALB/3T3 is peeled from a culture flask, and the cell number is counted.
2) The cell concentration is adjusted to 0.7×10^5 cells/ml, and the cells are seeded into a 96-well plate at 100 μl/well. PBS is added in an amount of 100 μl to a line of wells in both ends where the cells are not seeded.
3) The cells are cultured in a CO2 incubator for 1 day.
4) DMSO is added to a test compound, and the EBSS is further added thereto and dissolved. Ultrasonic waves, heating.
5) The compound solution of the highest concentration is transferred to the adjacent tube by 300 μL. This operation is repeated to prepare solutions having serial dilution concentration.
10) For each compound, compound solutions of 8-serial dilutions are dispensed at 100 μL/well.
11) The plates are allowed to stand still in a dark place (in a drawer of a lab bench) for 60 minutes.
12) Thereafter, the plates are irradiated with UV for 70 minutes (1200 μW/cm^2). The plate not irradiated is put in an empty box.
1) Neutral red (NR) is prepared in an amount of 50 μg/ml
3) The NR solution is dispensed at 100 μL/well.
4) Culturing is performed for 3 hours in a CO2 incubator.
8) The NR eluent is dispensed at 150 μl/well.
10) An absorbance at 540 nm is measured using a microplate reader.
According to the above test example 8, several compounds of formula (I) were evaluated. […] Herein, MPE refers to a value showing Mean Photo Effect. MPE can be calculated according to Equation 2 of the following document, for example.

Chain of human 5-HT5A receptor (P47898 whole entry): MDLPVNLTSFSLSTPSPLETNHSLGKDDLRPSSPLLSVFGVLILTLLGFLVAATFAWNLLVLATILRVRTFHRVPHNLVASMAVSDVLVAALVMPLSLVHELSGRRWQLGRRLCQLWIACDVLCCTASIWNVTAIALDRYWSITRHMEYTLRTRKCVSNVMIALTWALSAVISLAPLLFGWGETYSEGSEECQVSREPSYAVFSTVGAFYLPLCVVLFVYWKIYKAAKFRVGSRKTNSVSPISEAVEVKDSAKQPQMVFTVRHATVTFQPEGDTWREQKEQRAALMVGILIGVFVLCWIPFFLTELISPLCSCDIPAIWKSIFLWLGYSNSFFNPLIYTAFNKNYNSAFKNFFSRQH

SMILES	Ki (human 5-HT5A receptor) [nM]	also measured
NC(N)=NC(=O)N1CCc2c(F)ccc(-c3c(F)cc(F)cc3F)c2C1 [Ex 26]	0.68	hyperactivity induced by MK-801 (male ICR mouse [1]; oral dose 0.03 mg/kg): significantly suppressed; hyperactivity induced by MAP (male ICR mouse [2]): significantly inhibited; scopolamine-induced spontaneous alternation behavior (male ddy mouse; oral dose 0.03 mg/kg): significantly inhibited; MPE (Mean Photo Effect) (BALB/3T3): 0.00
NC(N)=NC(=O)N1CCc2cccc(-c3cc(F)c(F)cc3F)c2C1 [Ex 8]	3.6	–
NC(N)=NC(=O)N1Cc2c(-c3ccccc3F)ccc(F)c2C2(CC2)C1 [Ex 86]	0.95	–
NC(N)=NC(=O)N1Cc2c(-c3cc(F)c(F)cc3F)ccc(F)c2C2(CC2)C1 [Ex 78]	1.3	hyperactivity induced by MK-801 (male ICR mouse [1]; oral dose 0.1 mg/kg): significantly suppressed; scopolamine-induced spontaneous alternation behavior (male ddy mouse; oral dose 0.03 mg/kg): significantly inhibited
NC(N)=NC(=O)N1Cc2c(-c3ccc(F)cc3F)ccc(Cl)c2C(F)C1 (stereo not drawn) [Ex 49]	6.6	–
NC(N)=NC(=O)N1CCc2c(F)ccc(-c3ncc(Cl)cc3F)c2C1 [Ex 4, 8-(5-chloro-3-fluoropyridin-2-yl)-N-(diaminomethylene)-5-fluoro-3,4-dihydroisoquinoline-2(1H)-carboxamide]	4.3	–
NC(N)=NC(=O)N1CCc2c(Cl)ccc(-c3c(F)cncc3F)c2C1 [Ex 61]	2.5	–
NC(N)=NC(=O)N1CCc2c(F)ccc(-c3ncc(Cl)cc3Cl)c2C1 [Ex 62]	1.9	hyperactivity induced by MK-801 (male ICR mouse [1]; oral dose 0.01 mg/kg): significantly suppressed; scopolamine-induced spontaneous alternation behavior (male ddy mouse; oral dose 0.003 mg/kg): significantly inhibited
Cc1ccc(-c2ncc(F)cc2F)c2c1CCN(C(=O)N=C(N)N)C2 [Ex 60]	3.9	hyperactivity induced by MK-801 (male ICR mouse [1]; oral dose 0.03 mg/kg): significantly suppressed
CC1CN(C(=O)N=C(N)N)Cc2c(-c3c(F)cccc3F)ccc(F)c21 (stereo not drawn) [Ex 69]	1.6	–
NC(N)=NC(=O)N1Cc2c(-c3c(F)cc(F)cc3F)ccc(F)c2C2(CC2)C1 [Ex 74]	0.88	–
NC(N)=NC(=O)N1Cc2c(C3CC3)ccc(F)c2C2(CC2)C1 [Ex 76]	2.7	hyperactivity induced by MK-801 (male ICR mouse [1]; oral dose 0.1 mg/kg): significantly suppressed
NC(N)=NC(=O)N1CCc2cccc(-c3ncc(F)cc3F)c2C1 [Ex 81]	4.2	–
NC(N)=NC(=O)N1Cc2c(-c3ccc(F)cc3F)ccc(F)c2C2(CC2)C1 [Ex 80]	0.85	–
NC(N)=NC(=O)N1CCc2c(Cl)ccc(-c3ccc(F)cc3F)c2C1 [Ex 44]	2.7	–
NC(N)=NC(=O)N1Cc2c(-c3c(F)cccc3F)ccc(F)c2C2(CC2)C1 [Ex 66]	0.75	–
NC(N)=NC(=O)N1CCc2c(F)ccc(-c3c(F)cccc3F)c2C1 [Ex 28]	1.1	hyperactivity induced by MK-801 (male ICR mouse [1]; oral dose 0.03 mg/kg): significantly suppressed; hyperactivity induced by MAP (male ICR mouse [2]): significantly inhibited; scopolamine-induced spontaneous alternation behavior (male ddy mouse; oral dose 0.003 mg/kg): significantly inhibited; MPE (Mean Photo Effect) (BALB/3T3): 0.00
Cl.NC(N)=NC(=O)N1CCc2c(F)ccc(-c3ncc(F)cc3F)c2C1 [Ex 46]	6.9	hyperactivity induced by MK-801 (male ICR mouse [1]; oral dose 0.03 mg/kg): significantly suppressed; scopolamine-induced spontaneous alternation behavior (male ddy mouse; oral dose 0.003 mg/kg): significantly inhibited
NC(N)=NC(=O)N1CCc2c(F)ccc(-c3cc(F)c(F)cc3F)c2C1 [Ex 79]	3.7	–
NC(N)=NC(=O)N1CCc2c(Cl)ccc(-c3c(F)cc(F)cc3F)c2C1 [Ex 23]	1.1	hyperactivity induced by MK-801 (male ICR mouse [1]; oral dose 0.03 mg/kg): significantly suppressed; scopolamine-induced spontaneous alternation behavior (male ddy mouse; oral dose 0.003 mg/kg): significantly inhibited; MPE (Mean Photo Effect) (BALB/3T3): 0.00
